Results reported in ChEMBL document CHEMBL1201862, “PubChem BioAssay data set” (2004).
“And” between values parts separate entries of the source, which are not always exact repeats. Identical values can stand only once.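 Method: 48-hour compound exposure of cells in 96-well plates, five concentrations, linear interpolation of endpoints. GI50: concentration for 50% inhibition of growth.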 The source made the active and inactive calls. Cut-off read from the data, not from the text of the source: active = GI50 up to about 1.1 µM and inactive = higher.

Experiments:
Experiment in all cases: DTP human tumour cell line panel, 48 h
Hs-578T = tested on: Hs-578T
DMS-114 = tested on: DMS-114
LXFL 529 = tested on: LXFL 529
KM-20L2 = tested on: KM-20L2
XF498 = tested on: XF498
SNB-78 = tested on: SNB-78
HOP-18 = tested on: HOP-18
M19-MEL = tested on: M19-MEL

## Oc1ccccc1C(c1cc2c(cc1O)OCO2)N1CCOCC1 (stereo not drawn)
Hs-578T
  GI50: 19.5 µM (inactive)

## CC1(C)CCCC2(C)C3C(O)CC2(C)C(O)C31 (stereo not drawn)
DMS-114
  GI50: > 100 µM (inactive)
LXFL 529
  GI50: > 100 µM (inactive)
KM-20L2
  GI50: > 100 µM (inactive)
XF498
  GI50: > 100 µM (inactive)
SNB-78
  GI50: > 100 µM (inactive)
HOP-18
  GI50: > 100 µM (inactive)
M19-MEL
  GI50: > 100 µM (inactive)

## CCOC(=O)Nc1sc2c(c1C#N)CCCC2
Hs-578T
  GI50: 78.7 µM (inactive)

## O=C1NC2c3c(I)sc(I)c3C(=O)C2O1 (stereo not drawn)
Hs-578T
  GI50: 13.5 µM (inactive)

## O=C(O)C12C3CCC(O3)C1(C(=O)O)C1CCC2O1 (stereo not drawn)
Hs-578T
  GI50: > 100 µM (inactive) and 98.2 µM (inactive)

## Cc1ccc(S(=O)(=O)N2CCSCCSCCSCCSCC2)cc1
Hs-578T
  GI50: > 23.3 µM (inactive)

## Cc1ccc2c(c1)S(=O)(=O)c1ccc3ccccc3c1N2
Hs-578T
  GI50: > 100 µM (inactive)

## O=C(Nc1cc(Cl)c(Cl)cc1Cl)C(=O)C(C(=O)c1ccc(Cl)c(Cl)c1)C1OC(=O)c2ccccc21 (stereo not drawn)
DMS-114
  GI50: 13.7 µM (inactive)
LXFL 529
  GI50: 10.9 µM (inactive)
KM-20L2
  GI50: 17.7 µM (inactive)
SNB-78
  GI50: 31.8 µM (inactive)
M19-MEL
  GI50: 17.6 µM (inactive)

## C1=CC2=CC=CC3c4nc5ccc6ccccc6c5nc4C(=C1)C23 (stereo not drawn)
Hs-578T
  GI50: > 100 µM (inactive)

## CC(C)(C)C1=Nc2c(Br)cc(C(C)(C)C)cc2C(C(F)(F)F)(C(F)(F)F)O1
DMS-114
  GI50: 31.6 µM (inactive)
LXFL 529
  GI50: 46.7 µM (inactive)
KM-20L2
  GI50: > 100 µM (inactive)
XF498
  GI50: 19 µM (inactive)
SNB-78
  GI50: > 100 µM (inactive)
M19-MEL
  GI50: 72.6 µM (inactive)

## COc1cc2c(c(O)c1OC)C(=O)[C@@H]1CCC(=O)N1C2
Hs-578T
  GI50: > 100 µM (inactive)

## O=C1COc2ccc([N+](=O)[O-])cc2C(=O)C1
Hs-578T
  GI50: > 10 µM (inactive)

## O=C1C(=Cc2c(O)cc(O)cc2O)C(=O)c2ccccc21
DMS-114
  GI50: > 100 µM (inactive)
LXFL 529
  GI50: > 43.5 µM (inactive)
KM-20L2
  GI50: > 43.5 µM (inactive)
SNB-78
  GI50: 23.8 µM (inactive)
HOP-18
  GI50: 27.4 µM (inactive)
M19-MEL
  GI50: > 38.5 µM (inactive)

## CC1=CC2C3(C)C(C)(C(C)=CP3(=O)c3c(C(C)C)cc(C(C)C)cc3C(C)C)C1P2(=O)c1c(C(C)C)cc(C(C)C)cc1C(C)C (stereo not drawn)
Hs-578T
  GI50: 2.28 µM (inactive)

## N#C/C(=C1\OC(=N)C(c2ccccc2)C1=O)c1ccccc1 (stereo not drawn)
DMS-114
  GI50: 29.5 µM (inactive)
LXFL 529
  GI50: 17.8 µM (inactive)
KM-20L2
  GI50: 98.6 µM (inactive)
XF498
  GI50: 16.9 µM (inactive)
SNB-78
  GI50: > 77.1 µM (inactive)
HOP-18
  GI50: 28.6 µM (inactive)
M19-MEL
  GI50: 24 µM (inactive)

## COC1/C=C/C(C)C(OC)CC(O)/C=C/C(C)C(C(C)C(OC)C(C)CCC(=O)C(C)C(C/C=C/N(C)C=O)OC)OC(=O)/C=C/C=C(\C)CC(OC)CC2=CC(=O)O[C@@H](C(C)C(OC)C1)[C@H]2O (stereo partly drawn)
Hs-578T
  GI50: 0.0809 µM (active)

## O=C(O)C1C(C(=O)O)C23CC2(C(=O)O)C2(C(=O)O)CCC3=C3CCCC312 (stereo not drawn)
Hs-578T
  GI50: 2.67 µM (inactive)
